From patent publication US20260109690A1, “HDAC6 INHIBITORS AND METHOD OF THEIR USE” (Baerenkraft Therapeutics, LLC., priority 2024, published 2026) come the findings set out here.

One test deals with HDAC9 (Homo sapiens, UniProt Q9UKV0). As to the kind of experiment: HDAC selectivity panel: HDAC9. The class given is biochemical.
Another test has as its target T1, HDAC6 (Homo sapiens, UniProt Q9UBN7).
T1 sequence (Q9UBN7 1-1215): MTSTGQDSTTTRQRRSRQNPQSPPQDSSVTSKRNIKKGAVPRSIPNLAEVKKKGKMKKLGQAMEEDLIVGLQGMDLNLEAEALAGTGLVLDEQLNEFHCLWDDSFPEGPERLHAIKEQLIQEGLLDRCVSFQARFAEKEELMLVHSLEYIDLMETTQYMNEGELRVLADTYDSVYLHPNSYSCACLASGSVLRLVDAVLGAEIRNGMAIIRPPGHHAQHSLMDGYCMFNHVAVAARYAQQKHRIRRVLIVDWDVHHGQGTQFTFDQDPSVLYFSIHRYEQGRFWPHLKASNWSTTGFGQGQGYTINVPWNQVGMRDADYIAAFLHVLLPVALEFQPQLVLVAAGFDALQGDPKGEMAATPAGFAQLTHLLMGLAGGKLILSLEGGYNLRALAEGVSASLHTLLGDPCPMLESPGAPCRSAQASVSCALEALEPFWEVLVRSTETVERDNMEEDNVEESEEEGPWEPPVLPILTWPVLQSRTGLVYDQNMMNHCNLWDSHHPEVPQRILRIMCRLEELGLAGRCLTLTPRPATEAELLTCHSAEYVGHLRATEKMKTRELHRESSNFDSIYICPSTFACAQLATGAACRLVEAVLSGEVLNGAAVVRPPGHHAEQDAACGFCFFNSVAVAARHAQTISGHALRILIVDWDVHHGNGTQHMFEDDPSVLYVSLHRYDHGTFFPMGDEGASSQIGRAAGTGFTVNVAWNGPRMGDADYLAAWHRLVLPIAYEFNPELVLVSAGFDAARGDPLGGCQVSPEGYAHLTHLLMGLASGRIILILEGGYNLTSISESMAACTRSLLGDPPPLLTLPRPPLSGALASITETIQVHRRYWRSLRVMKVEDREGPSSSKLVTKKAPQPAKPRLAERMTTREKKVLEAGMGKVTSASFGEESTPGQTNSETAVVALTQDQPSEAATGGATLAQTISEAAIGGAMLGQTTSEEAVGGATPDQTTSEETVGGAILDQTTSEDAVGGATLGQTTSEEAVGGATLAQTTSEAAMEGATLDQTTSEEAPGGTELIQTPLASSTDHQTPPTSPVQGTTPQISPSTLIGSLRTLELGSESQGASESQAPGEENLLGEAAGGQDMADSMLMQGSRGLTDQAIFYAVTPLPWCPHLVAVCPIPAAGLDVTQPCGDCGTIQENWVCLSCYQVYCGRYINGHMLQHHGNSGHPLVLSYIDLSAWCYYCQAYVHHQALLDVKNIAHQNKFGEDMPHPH
In words: Biochemical HDAC6 inhibitory activity assay.

In test [1] the test system is acetyl-α-tubulin in SH-SY5Y neuroblastoma cells. In words: ICC dose response of acetylated alpha-tubulin in SH-SY5Y neuroblastoma cells. The class given is cell-based. Conditions: 24-hour treatment. As for the experimental part:
Cell Seeding: Seeded at 2,000 cells/well in 384-well plates 24-hours prior to compound treatment
Compound Treatment: 24-hour
HDAC6 inhibitor compounds tested (1 control and 6 experimental)
9-point dose-response curves for all compounds, starting at 30 μM with 3-fold serial dilutions
4 technical replicate wells per condition tested
Cells were seeded in 90 μL media. 10 μL of 10× compound solutions added to 90 μL media for 24-hours
Fixation: 4% PFA for 15 minutes (after removing all media and washing with DPBS+0.1% Tween-20)
Permeabilization: 0.1% Triton X-100 for 20 minutes
Primary antibody: acetyl-α-tubulin (Lys40/D20G3; Cell Signaling Technologies, #5335S) 1:1000 dilution in DPBS+5% goat serum+0.1% Tween-20, 1 hour at room temp on orbital shaker
Secondary antibody: Goat anti-Rabbit IgG (H+L) Highly Cross-Adsorbed Secondary Antibody, Alexa Fluor™ Plus 488, Catalog #A32731, 1:1000 dilution+Hoechst 33342, 1:10,000 dilution in DPBS+5% goat serum+0.1% Tween-20, 1 hour at room temp on orbital shaker
High-content imaging system: Image Xpress Micro Confocal from Molecular Devices […]
Integrated fluorescence intensity of acetyl-α-tubulin was calculated using an automated image-analysis algorithm in Meta Xpress software
Average intensity per cell was calculated by dividing the integrated fluorescence intensity by the number of nuclei. […]

The subject of test [2] is B6SJL.SOD1-G93A transgenic mouse model of amyotrophic lateral sclerosis. As to the kind of experiment: ALS mouse model: neurological scoring. The class given is in vivo, mice. To be noted: scale of 4-0. As for the experimental part: At week 9, animals were treated either with vehicle or compound I-8 per orally Q.D. Animals were scored (twice in a week until week 12 and every day thereafter until termination) for motor impairment using Vercelli neurological scoring system at the scale of 4-0. Animals were subjected to different tests for motor coordination and muscle strength assessment once in two weeks.
Animals were scored for motor deficits using the scoring system: • 4—Normal/no sign of motor dysfunction • 3—Presence of hindlimb tremors when suspended by tail • 2—Presence of gait abnormalities • […]—Dragging at least one hindlimb • Absence of right reflex within 30 seconds
Animals were scored twice a week from initiation of treatment until week 12 and everyday thereafter until termination.

The next test deals with HDAC2 (Homo sapiens, UniProt Q92769). As to the kind of experiment: HDAC selectivity panel: HDAC2. The class given is biochemical.

Where two headings read alike, the source gives them in different places.

Sequence of HDAC2 (Q92769 whole entry, species assumed): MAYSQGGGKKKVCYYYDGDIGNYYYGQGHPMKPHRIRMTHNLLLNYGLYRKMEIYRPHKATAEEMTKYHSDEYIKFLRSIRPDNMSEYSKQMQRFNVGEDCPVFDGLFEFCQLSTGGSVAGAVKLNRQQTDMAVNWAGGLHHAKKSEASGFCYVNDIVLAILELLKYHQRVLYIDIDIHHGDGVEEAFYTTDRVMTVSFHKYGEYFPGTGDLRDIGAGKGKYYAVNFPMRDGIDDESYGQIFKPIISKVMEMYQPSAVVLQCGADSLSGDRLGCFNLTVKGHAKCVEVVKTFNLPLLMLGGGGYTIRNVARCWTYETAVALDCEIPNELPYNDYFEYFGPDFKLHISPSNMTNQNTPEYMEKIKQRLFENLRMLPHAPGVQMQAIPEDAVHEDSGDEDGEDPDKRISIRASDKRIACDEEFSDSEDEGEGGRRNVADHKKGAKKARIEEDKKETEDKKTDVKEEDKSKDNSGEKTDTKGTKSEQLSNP
Sequence of HDAC9 (Q9UKV0 whole entry, species assumed): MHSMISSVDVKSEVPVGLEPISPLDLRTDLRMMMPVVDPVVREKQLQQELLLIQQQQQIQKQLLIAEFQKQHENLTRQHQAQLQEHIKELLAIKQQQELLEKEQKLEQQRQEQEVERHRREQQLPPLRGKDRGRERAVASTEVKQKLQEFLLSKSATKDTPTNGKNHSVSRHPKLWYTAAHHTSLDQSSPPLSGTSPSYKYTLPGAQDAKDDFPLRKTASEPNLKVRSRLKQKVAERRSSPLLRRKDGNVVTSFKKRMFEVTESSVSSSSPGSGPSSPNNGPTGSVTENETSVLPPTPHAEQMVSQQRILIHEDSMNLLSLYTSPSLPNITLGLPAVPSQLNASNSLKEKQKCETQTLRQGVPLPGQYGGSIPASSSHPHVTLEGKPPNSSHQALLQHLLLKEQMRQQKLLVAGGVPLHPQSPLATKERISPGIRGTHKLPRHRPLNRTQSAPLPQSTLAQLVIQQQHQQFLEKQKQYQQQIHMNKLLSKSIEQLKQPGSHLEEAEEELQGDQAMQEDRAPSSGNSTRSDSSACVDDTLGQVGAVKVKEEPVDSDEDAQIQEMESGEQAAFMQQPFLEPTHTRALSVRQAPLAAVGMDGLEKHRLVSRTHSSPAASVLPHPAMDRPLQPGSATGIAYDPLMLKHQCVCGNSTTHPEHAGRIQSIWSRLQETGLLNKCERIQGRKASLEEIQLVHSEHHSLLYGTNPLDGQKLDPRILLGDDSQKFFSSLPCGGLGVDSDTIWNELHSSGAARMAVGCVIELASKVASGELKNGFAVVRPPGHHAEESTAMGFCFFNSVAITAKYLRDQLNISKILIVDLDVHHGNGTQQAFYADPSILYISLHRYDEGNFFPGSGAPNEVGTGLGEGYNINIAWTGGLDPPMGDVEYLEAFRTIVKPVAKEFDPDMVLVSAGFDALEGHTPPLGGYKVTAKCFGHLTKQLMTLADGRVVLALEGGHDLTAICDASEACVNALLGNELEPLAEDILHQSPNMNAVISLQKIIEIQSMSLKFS

The IC50 is the concentration that inhibits the measured activity by half. In general, EC50 refers to the concentration giving half of the maximal effect. Higher therefore signals weaker potency. In the case of `CC1CN(Cc2ccc(Nc3nccc(-c4ccc(C(=O)NO)cc4)n3)cc2F)CCO1` (racemic) [Compound I-8, 4-(2-((3-fluoro-4-((2-methylmorpholino)methyl)phenyl)amino)pyrimidin-4-yl)-N-hydroxybenzamide], the 50% inhibitory concentration (IC50) against HDAC9 was 22000 nM; at HDAC6 (10-dose IC50 mode, in singlet, 3-fold serial dilution, test compound starting at 100 millimolar, read-out: HDAC6 IC50), 7.32 nM; on HDAC6 (read-out: HDAC6 IC50), less than 1000 nM; against HDAC2 it was 2800 nM. This compound gave an EC50 on HDAC6 (10-dose in vitro test (FIG. 1)) of 7.32 nM. Moreover, the “selectivity for HDAC6 compared to other HDACs” value on HDAC6 (against 11 HDACs) is on record as “marked selectivity for HDAC6”. In addition, the “increase in acetyl-α-tubulin (ICC)” value in test [1] is “induce acetylation of α-tubulin in SH-SY5Y neuroblastoma cells in a dose-dependent manner”. The Neurological scoring is on record as 4 ± 0 in test [2] (G3 15 mg/kg p.o. QD, Day 1); 4 ± 0 in test [2] (G3 15 mg/kg p.o. QD, Day 7); 3.89 ± 0.11 in test [2] (G3 15 mg/kg p.o. QD, Day 13); 3.44 ± 0.18 in test [2] (G3 15 mg/kg p.o. QD, Day 21); 3.11 ± 0.26 in test [2] (G3 15 mg/kg p.o. QD, Day 28); 2.22 ± 0.22 in test [2] (G3 15 mg/kg p.o. QD, Day 35). Moreover, the Neurological scoring was 2.11 ± 0.20 in test [2] (G3 15 mg/kg p.o. QD, Day 42); 1.89 ± 0.20 in test [2] (G3 15 mg/kg p.o. QD, Day 49); 1.56 ± 0.29 in test [2] (G3 15 mg/kg p.o. QD, Day 52); 4 ± 0 in test [2] (G4 30 mg/kg (50 mg/kg from day 34) p.o. QD, Day 1); 4 ± 0 in test [2] (G4 30 mg/kg (50 mg/kg from day 34) p.o. QD, Day 7); 3.75 ± 0.16 in test [2] (G4 30 mg/kg (50 mg/kg from day 34) p.o. QD, Day 13). Also, the Neurological scoring was determined as 3.5 ± 0.19 in test [2] (G4 30 mg/kg (50 mg/kg from day 34) p.o. QD, Day 21); 3 ± 0.27 in test [2] (G4 30 mg/kg (50 mg/kg from day 34) p.o. QD, Day 28); 2.25 ± 0.25 in test [2] (G4 30 mg/kg (50 mg/kg from day 34) p.o. QD, Day 35); 2.13 ± 0.23 in test [2] (G4 30 mg/kg (50 mg/kg from day 34) p.o. QD, Day 42); 1.88 ± 0.30 in test [2] (G4 30 mg/kg (50 mg/kg from day 34) p.o. QD, Day 49); 2 ± 0.26 in test [2] (G4 30 mg/kg (50 mg/kg from day 34) p.o. QD, Day 52 (n = 6-8)).

As for `C[C@@H]1CN(Cc2ccc(Nc3nccc(-c4ccc(C(=O)NO)cc4)n3)cc2F)CCO1` [Compound I-16, (R)-4-(2-((3-fluoro-4-((2-methylmorpholino)methyl)phenyl)amino)pyrimidin-4-yl)-N-hydroxybenzamide], the IC50 at HDAC6 (read-out: HDAC6 IC50) was less than 1000 nM; on HDAC6 (unit inferred, read-out: IC50 against HDAC6 (FIG. 3)), 12.4 nM.
